What was measured:
Assay in all cases: receptor-mediated PP2C (HAB1) inhibition in vitro assay
Format in all cases: biochemical
PYL4 = molecular target: T1, PYL4 (Arabidopsis thaliana, UniProt O80920); details: for remaining activity at 25 µM: compound at 25 μM, control without agonist = 100%
T1 construct: 6X-His; made in house; host or cells: E. coli BL21[DE3]pLysS
T1 sequence (O80920 1-207): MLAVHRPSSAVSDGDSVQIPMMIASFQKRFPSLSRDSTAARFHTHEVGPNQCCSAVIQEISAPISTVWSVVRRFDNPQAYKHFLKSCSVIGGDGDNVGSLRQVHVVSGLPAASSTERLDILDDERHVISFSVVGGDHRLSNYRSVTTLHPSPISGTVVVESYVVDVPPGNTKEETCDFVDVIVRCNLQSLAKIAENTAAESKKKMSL
T1 sequence (Q9CAJ0 23-511 partner): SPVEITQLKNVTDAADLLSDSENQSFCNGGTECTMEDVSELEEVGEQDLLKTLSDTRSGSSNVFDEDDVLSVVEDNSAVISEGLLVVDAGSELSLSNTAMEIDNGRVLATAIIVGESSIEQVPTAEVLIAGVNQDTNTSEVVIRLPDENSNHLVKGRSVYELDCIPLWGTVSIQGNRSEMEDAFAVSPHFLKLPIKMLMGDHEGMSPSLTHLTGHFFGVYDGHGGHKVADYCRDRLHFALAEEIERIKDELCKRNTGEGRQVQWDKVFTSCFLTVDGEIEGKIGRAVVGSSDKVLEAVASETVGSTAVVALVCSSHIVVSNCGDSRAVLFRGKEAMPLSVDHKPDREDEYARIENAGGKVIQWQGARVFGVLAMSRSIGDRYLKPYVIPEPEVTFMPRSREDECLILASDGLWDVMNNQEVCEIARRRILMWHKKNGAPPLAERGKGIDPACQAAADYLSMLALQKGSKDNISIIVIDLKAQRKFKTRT
Method in brief: (§1)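 Fluorogenic readout: 4-methylumbelliferyl-phosphate hydrolysis by 50 nM GST-HAB1 plus 2:1 His-receptor; Tris-OAc pH 7.9, NaCl, 1 mM MnCl2, β-ME. Compounds at 25 μM or 50 uM single dose; IC50 from dose curves for selected compounds.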

PYL11 = molecular target: T2, PYL11 (Arabidopsis thaliana, UniProt Q9FJ50); details: Table VII; read-out: PP2C Dose Curves PYL11 (IC50)
T2 construct: made in house; host or cells: E. coli BL21[DE3]pLysS
T2 sequence (Q9FJ50 1-161): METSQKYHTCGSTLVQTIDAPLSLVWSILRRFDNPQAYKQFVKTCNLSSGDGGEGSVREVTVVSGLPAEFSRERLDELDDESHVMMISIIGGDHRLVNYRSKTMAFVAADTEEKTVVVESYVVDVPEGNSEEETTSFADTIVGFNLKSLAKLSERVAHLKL
T2 sequence (Q9CAJ0 23-511 partner): T1 sequence (Q9CAJ0 23-511 partner)
Method in brief: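 His-tagged receptors (MBP fusion for PYL11) at 2:1 ratio to 50 nM GST-HAB1 in 100 mM Tris-OAc pH 7.9, 100 mM NaCl, 1 mM MnCl2; 4-methylumbelliferyl-phosphate fluorogenic substrate. Compounds at 50 uM (ABA 10 uM); IC50 from dose curves for selected compounds.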

PYL9 = molecular target: T3, PYL9 (Arabidopsis thaliana, UniProt Q84MC7); details: for IC50: Table VII, read-out: PP2C Dose Curves PYL9 (IC50); for remaining activity at 25 µM: compound at 25 μM, control without agonist = 100%
T3 construct: 6X-His; made in house; host or cells: E. coli BL21[DE3]pLysS
T3 sequence (Q84MC7 1-187): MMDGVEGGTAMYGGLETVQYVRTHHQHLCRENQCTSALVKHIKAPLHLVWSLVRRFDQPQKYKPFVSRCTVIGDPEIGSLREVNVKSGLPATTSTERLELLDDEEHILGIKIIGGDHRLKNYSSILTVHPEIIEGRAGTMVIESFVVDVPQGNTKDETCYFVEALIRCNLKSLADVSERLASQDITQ
T3 sequence (Q9CAJ0 23-511 partner): T1 sequence (Q9CAJ0 23-511 partner)
Method in brief: as §1

PYL10 = molecular target: T4, PYL10 (Arabidopsis thaliana, UniProt Q8H1R0); details: Table VII; read-out: PP2C Dose Curves PYL10 (IC50)
T4 construct: 6X-His; made in house; host or cells: E. coli BL21[DE3]pLysS
T4 sequence (Q8H1R0 1-183): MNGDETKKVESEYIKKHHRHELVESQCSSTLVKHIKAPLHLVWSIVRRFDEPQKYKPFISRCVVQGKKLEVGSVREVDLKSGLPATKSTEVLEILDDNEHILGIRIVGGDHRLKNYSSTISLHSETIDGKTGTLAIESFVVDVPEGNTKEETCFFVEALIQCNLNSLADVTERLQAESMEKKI
T4 sequence (Q9CAJ0 23-511 partner): T1 sequence (Q9CAJ0 23-511 partner)
Method in brief: as §1

PYL2 = molecular target: T5, PYL2 (Arabidopsis thaliana, UniProt O80992); details: Table VII; read-out: PP2C Dose Curves PYL2 (IC50)
T5 construct: 6X-His; made in house; host or cells: E. coli BL21[DE3]pLysS
T5 sequence (O80992 1-190): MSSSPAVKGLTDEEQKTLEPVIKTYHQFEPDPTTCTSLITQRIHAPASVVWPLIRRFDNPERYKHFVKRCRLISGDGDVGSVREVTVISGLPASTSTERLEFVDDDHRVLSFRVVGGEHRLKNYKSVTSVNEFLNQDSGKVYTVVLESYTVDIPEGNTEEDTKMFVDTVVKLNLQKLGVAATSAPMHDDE
T5 sequence (Q9CAJ0 23-511 partner): T1 sequence (Q9CAJ0 23-511 partner)
Method in brief: as §1

| SMILES | remaining activity at 25 µM (PYL4) | IC50 (PYL11) | IC50 (PYL9) | remaining activity at 25 µM (PYL9) | IC50 (PYL10) | IC50 (PYL2) | IC50 (PYL4; Table VII, read-out: PP2C Dose Curves PYL4 (IC50)) | PYL9 agonist potency and selectivity (PYL9; five- and six-membered rings at alpha carbon) |
| --- | --- | --- | --- | --- | --- | --- | --- | --- |
| CC(C)(C(=O)NS(=O)(=O)Cc1ccc(C#N)cc1)c1ccc(Cl)cc1 [Compound 6] | 90% | 4.16 µM | 8.96 µM | 32% | > 50 µM | > 50 µM | – | – |
| CC(C)(C(=O)NS(=O)(=O)Cc1ccc(C#N)cc1)c1ccc(Cl)c(Cl)c1 [Compound 7] | 90% | 13.9 µM | 18.5 µM | 38% | – | > 50 µM | – | – |
| CC(C)(C(=O)NS(=O)(=O)Cc1ccc(C#N)cc1)c1cccc(C#N)c1 [Compound 18] | 91% | 14.9 µM | 8.29 µM | 34% | 31.5 µM | > 50 µM | > 50 µM | – |
| CC(C)(C(=O)NS(=O)(=O)Cc1ccc(C#N)cc1)c1ccccc1 [Compound 23] | – | 7.84 µM | 1.88 µM | – | > 50 µM | – | – | – |
| N#Cc1ccc(CS(=O)(=O)NC(=O)C2(c3ccccc3F)CCCC2)cc1 [Compound 25] | 94% | 12.7 µM | 6.69 µM | 21% | > 50 µM | – | – | – |
| N#Cc1ccc(CS(=O)(=O)NC(=O)C2(c3cccc(F)c3)CCCC2)cc1 [Compound 26] | 99% | 7.52 µM | 7.11 µM | 18% | 41.6 µM | – | – | – |
| N#Cc1ccc(CS(=O)(=O)NC(=O)C2(c3ccc(Br)cc3)CC2)cc1 [Compound 30] | 90% | 4.63 µM | > 50 µM | 69% | – | > 50 µM | – | – |
| COc1ccccc1C1(C(=O)NS(=O)(=O)Cc2ccc(C#N)cc2)CCC1 [Compound 42] | 88% | 14.7 µM | 17.4 µM | 42% | 17.9 µM | – | – | – |
| Cc1cccc(C2(C(=O)NS(=O)(=O)Cc3ccc(C#N)cc3)CCCC2)c1 [Compound 43] | 95% | > 50 µM | 28.2 µM | 46% | > 50 µM | – | – | – |
| Cc1ccccc1C1(C(=O)NS(=O)(=O)Cc2ccc(C#N)cc2)CC1 [Compound 44] | 89% | 13.3 µM | 21.1 µM | 50% | 79.1 µM | > 50 µM | – | – |
| N#Cc1ccc(CS(=O)(=O)NC(=O)C2(c3ccc(F)cc3)CCCCC2)cc1 [Compound 51] | 93% | 5.33 µM | 0.04 µM | 8% | 4.46 µM | – | – | potent and relatively selective PYL9 agonists |

Now those with a lower IC50 (PYL11), led by results:

| remaining activity at 25 µM (PYL4) | IC50 (PYL11) | IC50 (PYL9) | remaining activity at 25 µM (PYL9) | IC50 (PYL10) | IC50 (PYL2) | IC50 (PYL4; Table VII, read-out: PP2C Dose Curves PYL4 (IC50)) | SMILES | PYL9 agonist potency and selectivity (PYL9; five- and six-membered rings at alpha carbon) |
| --- | --- | --- | --- | --- | --- | --- | --- | --- |
| 94% | 3.29 µM | 27.2 µM | 49% | > 50 µM | – | – | N#Cc1ccc(CS(=O)(=O)NC(=O)C2(c3ccc(F)cc3)CC2)cc1 [Compound 35] | – |
| 98% | 2.48 µM | 1.62 µM | 17% | > 50 µM | > 50 µM | – | CC(C)(C(=O)NS(=O)(=O)Cc1ccc(C#N)cc1)c1ccc(F)cc1 [Compound 13] | – |
| 92% | 2.25 µM | 1.4 µM | 12% | > 50 µM | – | – | N#Cc1ccc(CS(=O)(=O)NC(=O)C2(c3ccc(F)cc3)CCC2)cc1 [Compound 32] | – |
| 90% | 1.94 µM | 3 µM | 18% | – | – | – | CC(C)(C(=O)NS(=O)(=O)Cc1ccc([N+](=O)[O-])cc1)c1ccccc1 [Compound 3] | – |
| 96% | 1.77 µM | 1.27 µM | 14% | > 50 µM | – | – | N#Cc1ccc(CS(=O)(=O)NC(=O)C2(c3ccccc3)CCC2)cc1 [Compound 29] | – |

From patent publication US10757937B2, “Sulfonamides that activate ABA receptors” (The Regents of the University of California, priority 2014, dated 2020)
